Source: a melting point compilation (Tetko et al.; mined from patent text by program, amines drawn as free bases though some values may be those of a salt)

| Structure (SMILES) | melting point [°C] |
| --- | --- |
| O=C(NC1CCOC(O)C1)c1ccc2nonc2c1 (centres undefined) | 91 to 92 |
| COc1cc(C(CBr)(OC)OC)ccc1OS(=O)(=O)c1ccccc1 | 134 |
| O=c1[nH]c2cc(Cl)ccc2n1C1CCN(CCCC(c2ccc(F)cc2)c2ccc(F)cc2)CC1 | 186 |
| CNC(=O)c1ccc(C=CC(=O)NCC(=O)N(C)c2ccc(C)c(CO)c2C)cc1 | 261 to 263 |
| N#Cc1cnc2c(sc3ccccc32)c1Nc1ccc(Cl)cc1F | 250 to 251 |
| Nc1cccc(CN/C=C2\C(=O)NC(=O)c3ccc(Br)cc32)c1 | 214 to 215 |
| O=C(NCCSCc1cccc(F)c1)c1c(F)cccc1F | 39 to 41 |
| CC(C)(O)c1cccc(-c2ccc3nc(-c4ccc(Cl)cc4)c(F)n3c2)c1 | 174 to 175 |
| CN(C)C(=O)C#C[C@H]1CC[C@H](N(C)C(=O)OC(C)(C)C)CC1 | 115 to 117 |
| CN(C)/N=C(/C(=O)O)c1ccc(OCCOc2ccc3ccccc3c2)cc1 | 135 |
| CCN(CC)C(=O)c1ccc(C)c(-c2nc(NC3CCN(C)CC3)nc3c2CNC(=O)N3c2c(F)cccc2F)c1 | 165 to 169 |
| COCc1ccc(C[C@@H]2O[C@H](COC(C)=O)[C@@H](OC(C)=O)[C@H](OC(C)=O)[C@H]2OC(C)=O)cc1 | 120 to 122 |
| O=C(NCc1ccc([N+](=O)[O-])cc1)C(F)(F)F | 97 to 98 |
| COc1ccc(CNC(N)=O)cc1OC | 172 to 173 |
| Cn1c(/C=C/CO)c(-c2ccccc2)c2ccccc2c1=O | 209 |
| O=S1(=O)N=CN(C2CC2)c2cc(Cl)c(F)cc21 | 205 to 206 |
| COc1ccc(-c2cc(CO)c(=O)n(CC3CCCC3)n2)cc1F | 130 to 133 |
| O=C1CCC(CCCOC2CCOCC2)(c2ccc(Cl)c(Cl)c2)CN1 (centres undefined) | 45 |
| O=C1C(=O)c2ccccc2C2=C1SCC1(CCN(CCCOc3ccccc3)CC1)O2 | 127 to 129 |
| Cc1cc(Br)cnc1CCCCN=C(NC#N)NCc1ccccc1 | 140 to 141 |
| O=C(O)CCCCCCCCNS(=O)(=O)c1ccc(Cl)cc1 | 121 to 123 |
| Cn1cnc(=O)c(-c2cccc(Br)c2)c1 | 120 to 121 |
| O=C(O)C(O)c1ccccc1[N+](=O)[O-] (centres undefined) | 137 to 139 |
| Cc1cc2c(-c3ccccc3)nc(N3CCN(CC(=O)c4ccc(F)cc4)CC3)nc2s1 | 141 to 142 |
| CC(C)(C)CC(C)(C)c1cc(Cc2cc(C(C)(C)C)cc(-n3nc4ccccc4n3)c2O)c(O)c(C(C)(C)CC(C)(C)C)c1 | 166 |

| Structure (SMILES) | melting point [°C] |
| --- | --- |
| CC(=O)Nc1cn2cc(Sc3ccccc3)ccc2n1 | 257 to 259 |
| CN(C)CCn1c(=O)c(=NO)nc(-c2ccccc2)c2ccccc21 | 232 to 234 |
| Nc1nc(N)c(Br)c(OCc2ccccc2)n1 | 165 to 166 |
| [N-]=[N+]=Nc1cc(C2COCOC2)c2occc2c1 | 102 to 104 |
| Cc1cccc2[nH]c3c(c12)CCOC3(C)CC(=O)O (centres undefined) | 132 to 134 |
| CC(C)OC(=O)N1CCC(c2ccc3oc(-c4ccc(S(C)(=O)=O)cc4F)nc3c2)CC1 | 151 to 156 |
| CCOC(=O)Cc1nn(CC(=O)Nc2ccccc2)c(=O)c2ccccc12 | 187 |
| CC(OCc1cc2cc(Cl)ccc2n1S(=O)(=O)c1ccc2c(c1)OCCO2)C(=O)O (centres undefined) | 70 |
| O=C(O)COc1cc2c(c(Cl)c1Cl)C(=O)C(c1ccc(F)cc1)C2 (centres undefined) | 189 to 190 |
| CCOc1cc2c(Cl)c(C#N)cnc2cc1F | 165 to 166 |
| CN(C)CCc1cccc(OCCCCN2C(=O)c3ccccc3C2=O)c1 | 52 to 53 |
| CCSc1nccn1N1CCN(c2ccc(OC)cc2)CC1 | 112 |
| COc1cc(-c2cnn3c(-c4cccc(NC(=O)CC(C)C)c4)ccnc23)cc(OC)c1OC | 86 to 90 |
| CN(C(=O)N(C)n1cnc2ccccc2c1=O)c1ccc(Cl)cc1 | 97 to 120 |
| CSCC1Cn2cc(C(=O)NCc3ccc(Cl)cc3)c(=O)c3cc(CN4CCOCC4)cc(c32)O1 (centres undefined) | 190 to 191 |
| CCOC(=O)CN(Cc1cccnc1)c1ccc(C(O)(C(F)(F)F)C(F)(F)F)cc1 | 55 |
| O=C(NC(P(=O)(O)O)P(=O)(O)O)c1cc2ccccc2s1 | 234 to 238 |
| FC(F)(F)c1ccc2nc3c(nc2c1)OCC1CCCCN31 (centres undefined) | 154 to 156 |
| CCCCCCCCCCCCCCCCN(C(=O)C(F)(F)F)c1ccc(C(=O)Nc2ccc(C(=O)OCC)cc2)cc1 | 91 to 93 |
| CCCC(CCCCCN1C(=O)c2ccccc2C1=O)(C(=O)OCC)C(=O)OCC | 51 to 52 |
| CCOC(=O)C(C(=O)N(C)C)=C(OCc1ccccc1)c1ccc(Cl)cc1Cl | 115 |
| O=C1NC(=O)c2c1cc1ccc3c(c1c2-c1cccnc1)OCO3 | 323 to 325 |
| O=C(CS(=O)(=O)C(c1ccc(Cl)cc1)c1ccc(Cl)cc1)c1cccs1 | 150 to 151 |
| O=C1c2c(oc3ccccc23)-c2ccc(O)c3cccc1c23 | 374 |
| CCCCc1oc2ccccc2c1CCc1ccc(OS(=O)(=O)c2ccc(C(=O)O)c(OC(C)=O)c2)cc1 | 54 to 57 |

| Structure (SMILES) | melting point [°C] |
| --- | --- |
| Clc1cc(N2CCN(CCOc3ccc(Br)cc3)CC2)c(Cl)nn1 | 124 to 126 |
| Cc1nc(-c2ccncc2)sc1-c1cccnc1 | 113 to 114 |
| CC1CN(c2n[nH]c(-c3ccc(Cl)cc3)c2-c2ccncn2)CCN1C (centres undefined) | 212 to 214 |
| COC(=O)[C@@H]1C[C@H](NS(=O)(=O)c2ccccc2)C(=O)[C@H]2[C@@]1(C)CC[C@H]1C(=O)O[C@H](c3ccoc3)C[C@]21C | 271 to 273 |
| COc1cc(OC)c(-c2cc3ccccc3n2C)cc1C=CC(=O)c1ccc(S(N)(=O)=O)cc1 | 148 to 150 |
| NS(=O)(=O)c1cccc(NC(=O)c2cnn3ccc(-c4ccc(Cl)cc4)nc23)c1 | 345 |
| N#Cc1cc2cc(C(O)(C(F)(F)F)C(F)(F)F)ccc2[nH]1 | 183 to 185 |
| Cc1cc2c(c(NC(C(N)=O)c3c(Cl)cccc3Cl)c1)C(=O)CC2 (centres undefined) | 250 |
| COc1ccc(CC(NC(c2ccccc2)c2ccccc2)P(O)O)cc1 (centres undefined) | 199 to 202 |
| CC(C)c1cccc(C(C)C)c1OC(=O)CCC(=O)O | 101 to 102 |
| Cc1ccc(C)c(C(=O)Nc2ccc(C(=O)N3Cc4ccccc4Cc4ccccc43)cc2)c1 | 213 to 216 |
| COc1ccc(-c2c(C(N)=O)c3n(c2Cl)CCN(C(=O)OC(C)(C)C)C3)cc1 | 188 |
| COc1ccc(CCNc2nc(C)c(CCO)c(=O)n2C)cc1 | 210 |
| CCCCN1CC(=O)N2[C@@H](c3ccc(NC(C)=O)cc3)c3[nH]c4ccccc4c3C[C@@H]2C1=O (relative stereo) | 246 |
| CN1Cc2c(C(=O)O)ncn2-c2ccccc2C1=O | 287 |
| CCN1C(=O)CCCc2ccc(Nc3ncc(Cl)c(Nc4c(C)cccc4C(=O)NC)n3)cc21 | 210 to 212 |
| CC1(C)C=CN(C(=O)Nc2ccccc2)C=C1 | 128 to 130 |
| CC(C)CNCc1cnc2[nH]c(-c3cc(OCc4ccccc4)ccc3OC(C)C)nc2c1 | 101 to 103 |
| Cc1ccsc1C(=O)Nc1ccc(-n2nc(C(F)(F)F)cc2C(F)(F)F)cc1 | 185 to 188 |
| O=C1C=C2C=CC=C2O1 | 81 to 83 |
| O=C1CC(CO)N1Cc1ccccc1 (centres undefined) | 94 |
| CC(=O)OCC1OC(OC2OC(CO)C(O)C(O)C2O)C(OC(C)=O)C(OC(C)=O)C1OC(C)=O (centres undefined) | 120 |
| Nc1nc(NCCC23CC4CC(CC(C4)C2)C3)nc2c1ncn2C1OC(CO)C(O)C1O (centres undefined) | 145 to 147 |
| CCOC(=O)On1nnc2ccc(Cl)cc21 | 160 to 162 |
| O=Cc1cc(O)c(O)c(C=O)c1CCCCC(=O)O | 148 to 152 |

| Structure (SMILES) | melting point [°C] |
| --- | --- |
| Clc1cc(Cl)cc(-c2cc[nH]n2)c1 | 156 |
| Cn1c(=O)c2c(-c3nc(C4CC4)no3)ncn2c2ccccc21 | 184 to 190 |
| Cc1nnc(-c2ccc3occ(-c4ccccn4)c3c2)o1 | 148 to 149 |
| Cc1cc(=O)[nH]nc1-c1ccccc1 | 125 to 126 |
| COc1ccccc1-n1nnc2cc(F)c(N)cc21 | 128 to 129 |
| CS(=O)(=O)c1ccc(-n2nc(-c3ccc(O)cc3O)c3ccc(O)cc32)cc1 | 94 to 96 |
| Nc1nc(NCCNc2ccccc2)nc(-c2cc(Cl)ccc2Cl)n1 | 139 to 141 |
| CCOC(=O)C(=O)Nc1c([N+](=O)[O-])sc2ccc([N+](=O)[O-])cc12 | 178 to 183 |
| COc1cc2ccc3c4cc5c(cc4cnc3c2cc1OC)OCO5 | 275 to 277 |
| COC1CC2CCC1C2Nc1ccc([N+](=O)[O-])c2onnc12 (centres undefined) | 178 to 180 |
| COCCOc1ccccc1S(=O)(=O)NC(=O)Nc1nc(Cl)cc(OC)n1 | 166 to 168 |
| CCCc1nn(-c2ccc(C(F)(F)F)cn2)cc1CCCOc1c(CC(=O)O)cccc1C(C)C | 102 to 103 |
| O=S(=O)(c1ccc(Cl)cc1)C(CCO)c1cc(F)ccc1F (centres undefined) | 147 to 149 |
| COc1cc(Br)c2c(c1OC)C(=O)CC2 | 180 to 182 |
| NC(=O)c1cn(Cc2ccccc2F)nn1 | 220 to 222 |
| CNC(=O)ON=C1SCOC1COC (centres undefined) | 105 to 106 |
| CCOC(=O)Cc1nc2cc(OC)c(OC)cc2c(-c2ccc(OC)c(OC)c2)c1C(=O)OCC | 146 to 147 |
| O=C(NC(CC1CCCC1)C(=O)NC1CCCN(C(=O)c2ccccc2)CC1=O)c1ccco1 (centres undefined) | 97 to 100 |
| Cc1nc2ccccc2c(NCC(C)O)c1Br (centres undefined) | 147 to 149 |
| O=C1C(CCO)Oc2cc([N+](=O)[O-])ccc2N1Cc1cccc(Cl)c1 (centres undefined) | 100 to 102 |
| CSCC(O)COc1cccc2oc(C(=O)O)cc(=O)c12 (centres undefined) | 76 to 79 |
| CC(C)[C@H](NC(=O)OCc1ccccn1)C(=O)O | 116 to 118 |
| NCc1ccccc1C1CCN(c2c(F)c(N)c3c(=O)c(C(=O)O)cn(C4CC4)c3c2F)C1 (centres undefined) | 164 to 165 |
| CC(C)c1nc(CN)n(C)c1Sc1cc(Cl)cc(Cl)c1 | 86 to 87 |
